Here are results for 1 compound from US12076341B2, “Use of apoptotic compensatory proliferation signaling vesicles in tissue repair and wound healing” (Rush University Medical Center, priority 2018, dated 2024).

Type in all cases: cell-based
For test [1], the system named is Hela cells. Description: IF time-lapse videomicroscopy of transfected Hela cells (apoptosis, vesicle formation, compensatory proliferation signaling). To be noted: cells pre-treated with Z-VAD prior to transfection.
The test system of test [2] is Hela cells. Description: Proliferation assay by cell counts, adherent Hela cells treated with 16K fraction vesicles. To be noted: 16K fraction of Z-VAD treated serum-starved Hela cells; cell count 24 h. Here is the method:
Generation and Purification of ACPSVs: 7.5×10^6 cells were cultured in 150 mm^2 flasks (TPP) overnight in 25 mL of indicated media. Next day, cells were induced to undergo intrinsic apoptosis by serum-starvation, extrinsic apoptosis apoptosis by treatment with anti-Fas mAb (abcam-ab11881), or anoikis apoptosis by growing the cells detached from the surface in suspension media in Thermo Scientific Nunclon Sphera plates, in the presence or absence of Z-VAD. 24 to 48 h after induction of apoptosis, culture supernatants from serum-fed healthy (Mock) and apoptotic cells were collected and subjected to differential centrifugation. […] The proliferation-inducing effect associated with each fraction was determined by cell counts after growing recipient cells for 24 h at 37° C. in the presence of 5% CO2, using a hemocytometer after trypsin digestion.
Proliferation Assay. […] The next day at the time of treatment with vesicles, the initial cell number per well (0 h) was determined by trypsin digestion and cell counts using a hemocytometer. […] Proliferation rates were determined blindly by cell counts determination using a hemocytometer.

Test [3] has as its system Hela cells. Description: Apoptotic cell death of serum-starved Hela cells by flow cytometry. To be noted: Z-VAD pretreatment; 24 h serum starvation. Here is the method:
(§1) (FIG. 2A) Hela cells either received 10% serum (Mock) or were induced to undergo apoptosis by serum-starvation in the presence or absence of Z-VAD. 24 h after serum starvation, apoptotic cell death was assessed by flow cytometry and the tabulated results from 3 independent experiments are shown in (FIG. 2B). (*** p<0.001, One-way ANOVA). (FIGS. 2C-21) Supernatants from the indicated cultures were fractionated by differential centrifugation and evaluated for their Crkl-containing microvesicles (ACPSVs) and CPS. (FIG. 2C) ACPSVs in the 16K fraction of apoptotic cells were visualized by DIC. (FIG. 2D) Vesicle size distribution was determined and plotted (Mean size±S.D.=1.76±1.04 μm, n=822). […] (FIG. 2H) The lipid contents of the vesicles in the 16K fractions of the indicated cultures were measured and the tabulated data from 3 experiments are shown. […] (FIG. 2I) Hela cells were treated with 16K fractions of serum-fed healthy (Mock), serum-starved apoptotic (Apop.), or Z-VAD treated serum-starved (Apop.+Z-VAD) and the proliferation levels were determined by cell count 24 h after treatment. […] 24 h after serum starvation, cells were fixed and analyzed by SEM. […] Five hours after vesicle addition, the fractions of mitotic cells, with no vesicle (NV); with ACPSV only (+AC); with apoptotic body only (+AB); or with a combination of vesicles (+Mix) were assessed by SEM. […]
On the technique in general: In flow cytometry, cells or beads pass a laser one at a time.

In test [4] the test system is Hela cells. Description: Vesicle production in 16K fraction of serum-starved Hela cells (Crkl Western blot, lipid content). As to conditions: Z-VAD pretreatment; Crkl level and lipid content of 16K fraction. As to the method: as §1
For orientation: A western blot detects proteins with antibodies after separation by electrophoresis.

For test [5], the system named is human epithelial keratinocytes (HEK). Description: Anoikis apoptosis, vesicle formation and CPS of HEK cells grown in suspension media. To be noted: 60 μm Z-VAD. As to the method: HEK primary cells also product Crkl-containing vesicles which mediate CPS in other cells. (FIG. 8A) HEK cells were cultured either seeded (Mock) or induced to undergo anoikis apoptosis by culturing them in suspension media in the presence or absence of Z-VAD. (FIGS. 8A-8B) Supernatants from the indicated cultures were fractionated, as in FIG. 2, and their 16K fractions were evaluated for ACPSV production by Western blotting, using Crkl as a marker for vesicles, whose expression from 3 experiments was evaluated by densitometer and plotted below (FIG. 8A) or by lipid content measurements from 3 experiments in FIG. 8B. (n=3, * p≤ 0.05, ** p≤ 0.01, *** p≤ 0.001, one-way ANOVA). (FIG. 8C) ACPSVs in 16K fraction of apoptotic HEK cells were visualized by DIC. Similar to HeLa and B16 cells, vesicles from apoptotic HEK cells were globular and ranged between 1-1.8 micron in diameter. (FIG. 8D) HEK cells were treated with vesicles (16K fractions) harvested from HEK seeded healthy (Mock) cultures, or HEK grown in suspension media (Apop.), or HEK grown in suspension media in the presence of Z-VAD (Apop.+Z-VAD). 24 h after treatment, the proliferation levels were determined by cell counts and the tabulated data from 3 independent experiments were shown as the Mean±S.D. (** p<0.01, *** p≤ 0.001, one-way ANOVA). […]

Each structure is given as a SMILES string. “Also recorded” adds a separate entry of the source. Where a SMILES comes first, the peptide text is derived from it. The star is where a group is joined. Cbz = O=C(OCc1ccccc1)*; CH2F = FC*

In the case of `CC(NC(=O)C(NC(=O)OCc1ccccc1)C(C)C)C(=O)NC(CC(=O)O)C(=O)CF` (stereo not drawn) [Z-VAD] (Cbz-Val-Ala-Asp-CH2F; configuration not given here), the “ACPSV formation and release from Crkl-GFP transfected Hela cells” value with Hela cells [1] was “inhibits apoptosis and vesicle formation; also recorded: not formed or released”. In addition, in the test with Hela cells [2], the “CPS in recipient cells” value was “abrogated”. For the same compound, the “apoptosis in serum-starved Hela cells” value in the test with Hela cells [3] is “significantly reduced”. Moreover, the “vesicle production in serum-starved cells” value in the test with Hela cells [4] is recorded as “significantly reduced”. For the same compound, in test [5], the “apoptosis in HEK cells grown in suspension media” value is “significantly reduced”; the “vesicle formation and CPS in HEK cells grown in suspension media” value was “prevented”.
